Results reported in patent publication US12077503B2, “Substituted cyclic amides and their use as herbicides” (FMC CORPORATION, priority 2015, dated 2024).

Key:
Assay type in all cases: in vivo
[1] = test system: corn (Zea mays); test: Test G Pre-Emergence Protocol; conditions: Zea mays, pre-emergence, 312 h, evaluated after 13 days; for plant injury at 15.625 g/ha: 15.625 g ai/ha; for plant injury at 15.625 g/ha / plant injury at 250 g/ha: read-out: Corn damage rating (100=total damage to plant; 0=no damage to plant); for plant injury at 62.5 g/ha: 62.5 g ai/ha, 100=total damage to plant, 0=no damage to plant, read-out: plant damage rating, Corn; for plant injury at 250 g/ha: 250 g ai/ha
Outline: (§1)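 Glasshouse pre-emergence test: soil-sown seeds, sprayed after 1 d at 15.625, 62.5 or 250 g/ha. Conditions 24/16° C day/night, 14 h light, 65% humidity, watering twice daily. Rating 13 d post-spray (100 = total damage).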

[2] = test system: velvetleaf (Abutilon theophrasti); test: Test G Pre-Emergence Protocol; conditions: Abutilon theophrasti, pre-emergence, 312 h, evaluated after 13 days; for pest or weed control at 15.625 g/ha: 15.625 g ai/ha; for pest or weed control at 15.625 g/ha / pest or weed control at 250 g/ha: read-out: Velvetleaf damage rating (100=total damage to plant; 0=no damage to plant); for pest or weed control at 62.5 g/ha: 62.5 g ai/ha, 100=total damage to plant, 0=no damage to plant, read-out: plant damage rating, Velvetleaf; for pest or weed control at 250 g/ha: 250 g ai/ha
Outline: as §1

[3] = test system: giant foxtail (Setaria faberi); test: Test G Pre-Emergence Protocol; conditions: Setaria faberi, pre-emergence, 312 h, evaluated after 13 days; for pest or weed control at 15.625 g/ha: 15.625 g ai/ha; for pest or weed control at 15.625 g/ha / pest or weed control at 250 g/ha: read-out: Foxtail, Giant damage rating (100=total damage to plant; 0=no damage to plant); for pest or weed control at 62.5 g/ha: 62.5 g ai/ha, 100=total damage to plant, 0=no damage to plant, read-out: plant damage rating, Foxtail, Giant; for pest or weed control at 250 g/ha: 250 g ai/ha
Outline: as §1

[4] = test system: barnyardgrass (Echinochloa crus-galli); test: Test G Pre-Emergence Protocol; conditions: Echinochloa crus-galli, pre-emergence, 312 h, evaluated after 13 days; for pest or weed control at 15.625 g/ha: 15.625 g ai/ha, read-out: Barnyard grass damage rating (100=total damage to plant; 0=no damage to plant); for pest or weed control at 62.5 g/ha: 62.5 g ai/ha, 100=total damage to plant, 0=no damage to plant, read-out: plant damage rating, Barnyardgrass; for pest or weed control at 250 g/ha: 250 g ai/ha, read-out: Barnyardgrass damage rating (100=total damage to plant; 0=no damage to plant)
Outline: as §1

[5] = test system: redroot pigweed (Amaranthus retroflexus); test: Test G Pre-Emergence Protocol; conditions: Amaranthus retroflexus, pre-emergence, 312 h, evaluated after 13 days; for pest or weed control at 15.625 g/ha: 15.625 g ai/ha; for pest or weed control at 15.625 g/ha / pest or weed control at 250 g/ha: read-out: Pigweed, Redroot damage rating (100=total damage to plant; 0=no damage to plant); for pest or weed control at 62.5 g/ha: 62.5 g ai/ha, 100=total damage to plant, 0=no damage to plant, read-out: plant damage rating, Pigweed, Redroot; for pest or weed control at 250 g/ha: 250 g ai/ha
Outline: as §1

[6] = test system: ivy-leaved morning glory (Ipomoea hederacea); test: Test G Pre-Emergence Protocol; conditions: Ipomoea, pre-emergence, 312 h, evaluated after 13 days; for pest or weed control at 15.625 g/ha: 15.625 g ai/ha, read-out: Morning-glory, Ivy-leaved damage rating (100=total damage to plant; 0=no damage to plant); for pest or weed control at 62.5 g/ha: 62.5 g ai/ha, 100=total damage to plant, 0=no damage to plant, read-out: plant damage rating, Morningglory, Ivy-leaved; for pest or weed control at 250 g/ha: 250 g ai/ha, read-out: Morningglory, Ivy-leaved damage rating (100=total damage to plant; 0=no damage to plant)
Outline: as §1

[7] = test system: corn (Zea mays); test: Test G Post-Emergence Protocol; conditions: Zea mays, post-emergence, 312 h; for plant injury at 15.625 g/ha: 15.625 g ai/ha, evaluated after 13 days (100=total damage to plant; 0=no damage to plant), read-out: Corn damage rating; for plant injury at 62.5 g/ha: 62.5 g ai/ha, read-out: Corn damage rating (100=total damage to plant; 0=no damage to plant); for plant injury at 62.5 g/ha / plant injury at 250 g/ha: evaluated after 13 days; for plant injury at 250 g/ha: 250 g ai/ha, read-out: damage to plant, Corn (100=total damage to plant; 0=no damage to plant)
Outline: (§2)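 Seedlings grown 8 days in soil in a glasshouse (24/16 °C day/night, 14 h light, 65% humidity) were sprayed post-emergence with compound in acetone/water 50:50 plus 0.5% Tween 20 at 15.625, 62.5 or 250 g/ha. Damage was scored after 13 days on a 0–100 scale (100 = total damage).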

[8] = test system: velvetleaf (Abutilon theophrasti); test: Test G Post-Emergence Protocol; conditions: Abutilon theophrasti, post-emergence, 312 h; for pest or weed control at 15.625 g/ha: 15.625 g ai/ha, evaluated after 13 days (100=total damage to plant; 0=no damage to plant), read-out: Velvetleaf damage rating; for pest or weed control at 62.5 g/ha: 62.5 g ai/ha, read-out: Velvetleaf damage rating (100=total damage to plant; 0=no damage to plant); for pest or weed control at 62.5 g/ha / pest or weed control at 250 g/ha: evaluated after 13 days; for pest or weed control at 250 g/ha: 250 g ai/ha, read-out: damage to plant, Velvetleaf (100=total damage to plant; 0=no damage to plant)
Outline: as §2

[9] = test system: giant foxtail (Setaria faberi); test: Test G Post-Emergence Protocol; conditions: Setaria faberi, post-emergence, 312 h; for pest or weed control at 15.625 g/ha: 15.625 g ai/ha, evaluated after 13 days (100=total damage to plant; 0=no damage to plant), read-out: Foxtail, Giant damage rating; for pest or weed control at 62.5 g/ha: 62.5 g ai/ha, read-out: Foxtail, Giant damage rating (100=total damage to plant; 0=no damage to plant); for pest or weed control at 62.5 g/ha / pest or weed control at 250 g/ha: evaluated after 13 days; for pest or weed control at 250 g/ha: 250 g ai/ha, read-out: damage to plant, Foxtail, Giant (100=total damage to plant; 0=no damage to plant)
Outline: as §2

[10] = test system: barnyardgrass (Echinochloa crus-galli); test: Test G Post-Emergence Protocol; conditions: Echinochloa crus-galli, post-emergence, 312 h; for pest or weed control at 15.625 g/ha: 15.625 g ai/ha, evaluated after 13 days (100=total damage to plant; 0=no damage to plant), read-out: Barnyardgrass damage rating; for pest or weed control at 62.5 g/ha: 62.5 g ai/ha, read-out: Barnyardgrass damage rating (100=total damage to plant; 0=no damage to plant); for pest or weed control at 62.5 g/ha / pest or weed control at 250 g/ha: evaluated after 13 days; for pest or weed control at 250 g/ha: 250 g ai/ha, read-out: damage to plant, Barnyardgrass (100=total damage to plant; 0=no damage to plant)
Outline: as §2

[11] = test system: redroot pigweed (Amaranthus retroflexus); test: Test G Post-Emergence Protocol; conditions: Amaranthus retroflexus, post-emergence, 312 h; for pest or weed control at 15.625 g/ha: 15.625 g ai/ha, evaluated after 13 days (100=total damage to plant; 0=no damage to plant), read-out: Pigweed, Redroot damage rating; for pest or weed control at 62.5 g/ha: 62.5 g ai/ha, read-out: Pigweed, Redroot damage rating (100=total damage to plant; 0=no damage to plant); for pest or weed control at 62.5 g/ha / pest or weed control at 250 g/ha: evaluated after 13 days; for pest or weed control at 250 g/ha: 250 g ai/ha, read-out: damage to plant, Pigweed, Redroot (100=total damage to plant; 0=no damage to plant)
Outline: as §2

[12] = test system: ivy-leaved morning glory (Ipomoea hederacea); test: Test G Post-Emergence Protocol; conditions: Ipomoea, post-emergence, 312 h; for pest or weed control at 15.625 g/ha: 15.625 g ai/ha, evaluated after 13 days (100=total damage to plant; 0=no damage to plant), read-out: Morningglory, Ivy-leaved damage rating; for pest or weed control at 62.5 g/ha: 62.5 g ai/ha, read-out: Morningglory, Ivy-leaved damage rating (100=total damage to plant; 0=no damage to plant); for pest or weed control at 62.5 g/ha / pest or weed control at 250 g/ha: evaluated after 13 days; for pest or weed control at 250 g/ha: 250 g ai/ha, read-out: damage to plant, Morningglory, Ivy-leaved (100=total damage to plant; 0=no damage to plant)
Outline: as §2

SMILES	plant injury at 15.625 g/ha [1] [%]	plant injury at 62.5 g/ha [1] [%]	plant injury at 250 g/ha [1] [%]	pest or weed control at 15.625 g/ha [2] [%]	pest or weed control at 62.5 g/ha [2] [%]	pest or weed control at 250 g/ha [2] [%]	pest or weed control at 15.625 g/ha [3] [%]	pest or weed control at 62.5 g/ha [3] [%]	pest or weed control at 250 g/ha [3] [%]	pest or weed control at 15.625 g/ha [4] [%]	pest or weed control at 62.5 g/ha [4] [%]	pest or weed control at 250 g/ha [4] [%]	pest or weed control at 15.625 g/ha [5] [%]	pest or weed control at 62.5 g/ha [5] [%]	pest or weed control at 250 g/ha [5] [%]	pest or weed control at 15.625 g/ha [6] [%]	pest or weed control at 62.5 g/ha [6] [%]	pest or weed control at 250 g/ha [6] [%]	plant injury at 15.625 g/ha [7] [%]	plant injury at 62.5 g/ha [7] [%]	other results
Cc1ccc(NC(=O)[C@H]2C(=O)N(C)C[C@@H]2c2ccc(C(F)(F)F)cc2)c(C)c1C (racemic) [Compound 1448]	0	0	0	0	0	0	0	20	60	0	0	0	0	0	0	0	0	0	0	0	plant injury at 250 g/ha [7]: 10%; pest or weed control at 15.625 g/ha [8]: 0%; pest or weed control at 62.5 g/ha [8]: 0%; pest or weed control at 250 g/ha [8]: 0%; pest or weed control at 15.625 g/ha [9]: 0%; pest or weed control at 62.5 g/ha [9]: 0%; pest or weed control at 250 g/ha [9]: 0%; pest or weed control at 15.625 g/ha [10]: 0%; pest or weed control at 62.5 g/ha [10]: 0%; pest or weed control at 250 g/ha [10]: 0%; pest or weed control at 15.625 g/ha [11]: 0%; pest or weed control at 62.5 g/ha [11]: 0%; pest or weed control at 250 g/ha [11]: 30%; pest or weed control at 15.625 g/ha [12]: 0%; pest or weed control at 62.5 g/ha [12]: 0%; pest or weed control at 250 g/ha [12]: 0%
CN1C[C@H](c2ccc(C(F)(F)F)cc2)[C@@H](C(=O)Nc2ncc(F)cc2F)C1=O (racemic) [Compound 1452]	0	0	0	0	0	30	0	0	60	0	0	50	0	0	0	0	0	0	0	0	plant injury at 250 g/ha [7]: 0%; pest or weed control at 15.625 g/ha [8]: 0%; pest or weed control at 62.5 g/ha [8]: 0%; pest or weed control at 250 g/ha [8]: 10%; pest or weed control at 15.625 g/ha [9]: 0%; pest or weed control at 62.5 g/ha [9]: 0%; pest or weed control at 250 g/ha [9]: 10%; pest or weed control at 15.625 g/ha [10]: 0%; pest or weed control at 62.5 g/ha [10]: 0%; pest or weed control at 250 g/ha [10]: 0%; pest or weed control at 15.625 g/ha [11]: 0%; pest or weed control at 62.5 g/ha [11]: 0%; pest or weed control at 250 g/ha [11]: 10%; pest or weed control at 15.625 g/ha [12]: 0%; pest or weed control at 62.5 g/ha [12]: 10%; pest or weed control at 250 g/ha [12]: 10%
